In patent US11104690B2, “Indazole derivatives useful as inhibitors of diacylglyceride O-acyltransferase 2” (Merck Sharp & Dohme Corp., priority 2016, dated 2021):

The compounds below were run against Human DGAT2 (Homo sapiens (Human), UniProt Q96PD7) (assay: DGAT2 Enzymatic Activity Assay (triolein formation, LC/MS/MS)). Conditions: hDGAT2 Sf-9 membrane prep; 25 μM diolein, 10 μM oleoyl-CoA; room temperature.
Sequence of Human DGAT2 (Q96PD7 whole entry): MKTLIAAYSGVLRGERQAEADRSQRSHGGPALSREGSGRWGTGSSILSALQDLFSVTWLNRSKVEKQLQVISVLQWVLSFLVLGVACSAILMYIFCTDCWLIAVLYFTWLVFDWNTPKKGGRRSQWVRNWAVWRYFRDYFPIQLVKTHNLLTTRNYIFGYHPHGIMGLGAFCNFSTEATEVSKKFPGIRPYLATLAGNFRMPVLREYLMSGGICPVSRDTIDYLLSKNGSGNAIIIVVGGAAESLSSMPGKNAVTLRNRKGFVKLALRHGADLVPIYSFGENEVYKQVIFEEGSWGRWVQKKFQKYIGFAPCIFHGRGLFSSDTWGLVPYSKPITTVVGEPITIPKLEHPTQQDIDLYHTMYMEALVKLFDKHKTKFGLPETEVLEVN
Format: biochemical
Summary of the method: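 Triolein product, measured by LC/MS/MS as a ratio to internal standard, gave % inhibition and 4-parameter IC50. Reaction: 25 μM diolein, 10 μM oleoyl-CoA, 10 ng/μL hDGAT2 Sf-9 membrane, 100 mM Tris.Cl pH 7.0, 20 mM MgCl2, 5% ethanol, room temperature.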
For `COC[C@H](NC(=O)c1ccc2c(-c3ccccc3Cl)nn(-c3ccc(F)cc3)c2c1)[C@@H](O)c1ccccc1` [Example 74, 3-(2-chlorophenyl)-1-(4-fluorophenyl)-N-[(1S,2S)-2-hydroxy-1-(methoxymethyl)-2-phenylethyl]-1H-indazole-6-carboxamide], the IC50 was 16 nM. For `O=C(N[C@@H]1CCCC[C@H]1O)c1ccc2c(-c3ccccc3Cl)nn(-c3ccc(F)cc3)c2c1` (racemic) [Example 67], the IC50 was 40 nM. In the case of `O=C(Nc1ccc(C(F)(F)F)nc1)c1ccc2c(-c3ccccc3Cl)nn(-c3ccc(F)cc3)c2c1` [Example 10, 3-(2-chlorophenyl)-1-(4-fluorophenyl)-N-[6-(trifluoromethyl)pyridin-3-yl]-1H-indazole-6-carboxamide], the IC50 is reported as 608 nM. `O=C(NC1CCS(=O)(=O)C1)c1ccc2c(-c3ccccc3Cl)nn(Cc3ccc(F)cc3)c2c1` (stereo not shown) [Example 170, 3-(2-chlorophenyl)-N-(1,1-dioxidotetrahydrothiophen-3-yl)-1-(4-fluorobenzyl)-1H-indazole-6-carboxamide] was tested, and the IC50 was 179 nM. Compound `COc1cc(-c2nn(-c3ccc(F)cc3)c3cc(C(=O)NC4(C)CCS(=O)(=O)C4)ccc23)c(Cl)cn1` (single isomer, unassigned) [Example 141-A, 3-(5-chloro-2-methoxypyridin-4-yl)-1-(4-fluorophenyl)-N-(3-methyl-1,1-dioxidotetrahydrothiophen-3-yl)-1H-indazole-6-carboxamide] has an IC50 of 4.8 nM. In the case of `C[C@@H](CO)NC(=O)c1ccc2c(-c3ccccc3Cl)nn(-c3ccc(F)cc3)c2c1` [Example 68, 3-(2-chlorophenyl)-1-(4-fluorophenyl)-N-[(1S)-2-hydroxy-1-methylethyl]-1H-indazole-6-carboxamide], the IC50 is reported as 310 nM. `CN(C)S(=O)(=O)CCNC(=O)c1ccc2c(-c3ccccc3Cl)nn(-c3ccc(F)cc3)c2c1` [Example 25, 3-(2-chlorophenyl)-N-[2-(dimethylsulfamoyl)ethyl]-1-(4-fluorophenyl)-1H-indazole-6-carboxamide] was tested, and the IC50 was 558 nM. Compound `COc1cc(C#N)cc(-c2nn(-c3ccc(F)cc3)c3cc(C(=O)NC4(C)CCS(=O)(=O)C4)ccc23)c1F` (single isomer, unassigned) [Example 161-B, 3-(5-cyano-2-fluoro-3-methoxyphenyl)-1-(4-fluorophenyl)-N-(3-methyl-1,1-dioxidotetrahydrothiophen-3-yl)-1H-indazole-6-carboxamide] has an IC50 of 28 nM. `Cc1ncc([C@H](C)NC(=O)c2ccc3c(-c4ccccc4Cl)nn(-c4ccc(F)cc4)c3c2)cn1` [Example 34, 3-(2-chlorophenyl)-1-(4-fluorophenyl)-N-[(1S)-1-(2-methylpyrimidin-5-yl)ethyl]-1H-indazole-6-carboxamide] was tested, and the IC50 was 75 nM. For `O=C(NC1CCS(=O)(=O)C1)c1ccc2c(-c3cccnc3)nn(-c3ccc(F)cc3)c2c1` (single isomer, unassigned) [Example 134-A, N-(1,1-dioxidotetrahydrothiophen-3-yl)-1-(4-fluorophenyl)-3-pyridin-3-yl-1H-indazole-6-carboxamide], the IC50 was 212 nM. `CC1(NC(=O)c2ccc3c(-c4ccc(Cl)nc4F)nn(-c4ccc(F)cc4)c3c2)CCS(=O)(=O)C1` (single isomer, unassigned) [Example 152-A, 3-(6-chloro-2-fluoropyridin-3-yl)-1-(4-fluorophenyl)-N-(3-methyl-1,1-dioxidotetrahydrothiophen-3-yl)-1H-indazole-6-carboxamide] showed an IC50 of 4.5 nM. For `O=C(NC1CCS(=O)(=O)C1)c1ccc2c(-c3ccccc3Cl)nn(-c3ccc(F)cc3)c2c1` (single isomer, unassigned) [Example 2-A], the IC50 was 12 nM. `CC1(NC(=O)c2ccc3c(-c4cccc(C#N)c4)nn(-c4ccc(F)cc4)c3c2)CCS(=O)(=O)C1` (single isomer, unassigned) [Example 117-B, 3-(3-cyanophenyl)-1-(4-fluorophenyl)-N-(3-methyl-1,1-dioxidotetrahydrothiophen-3-yl)-1H-indazole-6-carboxamide] gave an IC50 of 6.4 nM. In the case of `CC(C)(C)[C@@H](CO)NC(=O)c1ccc2c(-c3ccccc3Cl)nn(-c3ccc(F)cc3)c2c1` [Example 99, 3-(2-chlorophenyl)-1-(4-fluorophenyl)-N-[(1S)-1-(hydroxymethyl)-2,2-dimethylpropyl]-1H-indazole-6-carboxamide], the IC50 is reported as 6.1 nM. Compound `C[C@@H](NC(=O)c1ccc2c(-c3ccccc3Cl)nn(-c3ccc(F)cc3)c2c1)c1ccc(C(F)(F)F)nc1` [Example 11, 3-(2-chlorophenyl)-1-(4-fluorophenyl)-N-{(1R)-1-[6-(trifluoromethyl)pyridin-3-yl]ethyl}-1H-indazole-6-carboxamide] has an IC50 of 38 nM. For `O=C(NC1CCS(=O)(=O)C1)c1ccc2c(-c3cccnc3Cl)nn(-c3ccc(F)cc3)c2c1` (single isomer, unassigned) [Example 135-A, 3-(2-chloropyridin-3-yl)-N-(1,1-dioxidotetrahydrothiophen-3-yl)-1-(4-fluorophenyl)-1H-indazole-6-carboxamide], the IC50 was 65 nM. With `CC1(NC(=O)c2ccc3c(-c4ccccc4Cl)nn(-c4ccccn4)c3c2)CCS(=O)(=O)C1` (single isomer, unassigned) [Example 174-A, 3-(2-chlorophenyl)-N-(3-methyl-1,1-dioxidotetrahydrothiophen-3-yl)-1-pyridin-2-yl-1H-indazole-6-carboxamide] the IC50 was 71 nM. Work on `C[C@H](CS(N)(=O)=O)NC(=O)c1ccc2c(-c3ccccc3Cl)nn(-c3ccc(F)cc3)c2c1` [Example 51, 3-(2-chlorophenyl)-1-(4-fluorophenyl)-N-[(1R)-1-methyl-2-sulfamoylethyl]-1H-indazole-6-carboxamide] yielded an IC50 of 184 nM. Work on `CC[C@H](C)[C@@H](CO)NC(=O)c1ccc2c(-c3ccccc3Cl)nn(-c3ccc(F)cc3)c2c1` [Example 103, 3-(2-chlorophenyl)-1-(4-fluorophenyl)-N-[(1S,2S)-1-(hydroxymethyl)-2-methylbutyl]-1H-indazole-6-carboxamide] yielded an IC50 of 31 nM. In the case of `O=C(NCCn1cnnc1)c1ccc2c(-c3ccccc3Cl)nn(-c3ccc(F)cc3)c2c1` [Example 39, 3-(2-chlorophenyl)-1-(4-fluorophenyl)-N-[2-(4H-1,2,4-triazol-4-yl)ethyl]-1H-indazole-6-carboxamide], the IC50 is reported as 96 nM. `CC1(NC(=O)c2ccc3c(-c4cccc(C(N)=O)c4)nn(-c4ccc(F)cc4)c3c2)CCS(=O)(=O)C1` (racemic) [Example 149, 3-(3-carbamoylphenyl)-1-(4-fluorophenyl)-N-(3-methyl-1,1-dioxidotetrahydrothiophen-3-yl)-1H-indazole-6-carboxamide] gave an IC50 of 249 nM. Compound `CN(C)C(=O)c1cccc(-c2nn(-c3ccc(F)cc3)c3cc(C(=O)NC4(C)CCS(=O)(=O)C4)ccc23)c1` (racemic) [Example 148, 3-[3-(dimethylcarbamoyl)phenyl]-1-(4-fluorophenyl)-N-(3-methyl-1,1-dioxidotetrahydrothiophen-3-yl)-1H-indazole-6-carboxamide] has an IC50 of 855 nM. For `CC1(NC(=O)c2ccc3c(-c4cc(C(F)(F)F)ccc4Cl)nn(-c4ccc(F)cc4)c3c2)CCS(=O)(=O)C1` (single isomer, unassigned) [Example 160-A, 3-[2-chloro-5-(trifluoromethyl)phenyl]-1-(4-fluorophenyl)-N-(3-methyl-1,1-dioxidotetrahydrothiophen-3-yl)-1H-indazole-6-carboxamide], the IC50 was 6.9 nM. `O=C(NC1(CO)CCSC1)c1ccc2c(-c3ccccc3Cl)nn(-c3ccc(F)cc3)c2c1` (racemic) [Example 98, 3-(2-chlorophenyl)-1-(4-fluorophenyl)-N-[3-(hydroxymethyl)tetrahydrothiophen-3-yl]-1H-indazole-6-carboxamide] was tested, and the IC50 was 45 nM. Compound `CC1(NC(=O)c2ccc3c(-c4ccccc4Cl)nn(C4CCCCO4)c3c2)CCS(=O)(=O)C1` (stereo not shown) [Example 191, 3-(2-Chlorophenyl)-N-(3-methyl-1,1-dioxidotetrahydrothiophen-3-yl)-1-(tetrahydro-2H-pyran-2-yl)-1H-indazole-6-carboxamide] has an IC50 of 182 nM. `CC(C)(O)C1(NC(=O)c2ccc3c(-c4ccccc4Cl)nn(-c4ccc(F)cc4)c3c2)CCOCC1` [Example 70, 3-(2-chlorophenyl)-1-(4-fluorophenyl)-N-[4-(1-hydroxy-1-methylethyl)tetrahydro-2H-pyran-4-yl]-1H-indazole-6-carboxamide] was tested, and the IC50 was 607 nM. For `O=C(N[C@@H]1CS(=O)(=O)C[C@H]1O)c1ccc2c(-c3ccccc3Cl)nn(-c3ccc(F)cc3)c2c1` [Example 9, 3-(2-chlorophenyl)-1-(4-fluorophenyl)-N-[(3S,4S)-4-hydroxy-1,1-dioxidotetrahydrothiophen-3-yl]-1H-indazole-6-carboxamide], the IC50 was 531 nM. With `O=C(NC1(CO)CCS(=O)(=O)C1)c1ccc2c(-c3ccccc3Cl)nn(-c3ccc(F)cc3)c2c1` (racemic) [Example 92, 3-(2-chlorophenyl)-1-(4-fluorophenyl)-N-[3-(hydroxymethyl)-1,1-dioxidotetrahydrothiophen-3-yl]-1H-indazole-6-carboxamide] the IC50 was 372 nM. Work on `CC1(NC(=O)c2ccc3c(-c4ccccc4Cl)nn(-c4ccc(Cl)cn4)c3c2)CCS(=O)(=O)C1` (single isomer, unassigned) [Example 171-A, 3-(2-Chlorophenyl)-1-(5-chloropyridin-2-yl)-N-(3-methyl-1,1-dioxidotetrahydrothiophen-3-yl)-1H-indazole-6-carboxamide] yielded an IC50 of 15 nM. `O=C(NCCS(=O)(=O)NC1CCCCC1)c1ccc2c(-c3ccccc3Cl)nn(-c3ccc(F)cc3)c2c1` [Example 53, 3-(2-chlorophenyl)-N-[2-(cyclohexylsulfamoyl)ethyl]-1-(4-fluorophenyl)-1H-indazole-6-carboxamide] showed an IC50 of 32 nM. In the case of `CC(NC(=O)c1ccc2c(-c3ccccc3Cl)nn(-c3ccc(F)cc3)c2c1)C(O)C(F)(F)F` (stereo not shown) [Example 81, 3-(2-chlorophenyl)-1-(4-fluorophenyl)-N-(3,3,3-trifluoro-2-hydroxy-1-methylpropyl)-1H-indazole-6-carboxamide], the IC50 is reported as 88 nM.
